Test results reported in ChEMBL document CHEMBL1201862, “PubChem BioAssay data set” (2004).
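Grown in 96-well plates, cells were treated for 48 hours with each compound at five concentrations. Insufficient inhibition: endpoint recorded as highest concentration tested. GI50 = concentration required for 50% inhibition of growth.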 The source made the active and inactive calls. Cut-off read from the data, not from the text of the source: active = GI50 up to about 1.1 µM and inactive = higher.

Columns and labels:
Assay in all cases: DTP human tumour cell line panel, 48 h
A498 = test system: A498
NCI-H23 = test system: NCI-H23
Hs-578T = test system: Hs-578T
NCI-H522 = test system: NCI-H522
Malme-3M = test system: Malme-3M
RPMI-8226 = test system: RPMI-8226
SN12C = test system: SN12C
NCI-H226 = test system: NCI-H226
CAKI-1 = test system: CAKI-1
SF-539 = test system: SF-539
IGROV-1 = test system: IGROV-1
MDA-MB-231 = test system: MDA-MB-231
UACC-62 = test system: UACC-62
RXF 393 = test system: RXF 393
HT-29 = test system: HT-29
786-0 = test system: 786-0
EKVX = test system: EKVX
SK-MEL-28 = test system: SK-MEL-28
NCI-H460 = test system: NCI-H460

Structure (SMILES) | GI50 (A498) | GI50 (NCI-H23) | GI50 (Hs-578T) | GI50 (NCI-H522) | GI50 (Malme-3M) | GI50 (RPMI-8226) | GI50 (SN12C) | GI50 (NCI-H226) | GI50 (CAKI-1) | GI50 (SF-539) | GI50 (IGROV-1) | GI50 (MDA-MB-231) | GI50 (UACC-62) | GI50 (RXF 393) | GI50 (HT-29) | GI50 (786-0) | GI50 (EKVX) | GI50 (SK-MEL-28) | GI50 (NCI-H460)
CSC(=S)N/N=C/c1ccccc1 | > 100 µM (inactive) | 33.5 µM (inactive) | > 100 µM (inactive) | 52.6 µM (inactive) | 36.5 µM (inactive) | 36.4 µM (inactive) | 50.2 µM (inactive) | 40.6 µM (inactive) | 24.5 µM (inactive) | 56.6 µM (inactive) | 22.3 µM (inactive) | > 100 µM (inactive) | 37.4 µM (inactive) | 28.8 µM (inactive) | 33 µM (inactive) | 39.4 µM (inactive) | 24.4 µM (inactive) | 94.2 µM (inactive) | 43.7 µM (inactive)
CCOC(=O)C12CC(C)=C(C)CC1CCCc1ccccc12 (configuration not stated) | 23 µM (inactive) | 28.4 µM (inactive) | 36.1 µM (inactive) | 17.6 µM (inactive) | 23 µM (inactive) | 12.5 µM (inactive) | 23.4 µM (inactive) | 24.5 µM (inactive) | 31.1 µM (inactive) | 28.2 µM (inactive) | 26.4 µM (inactive) | 14.2 µM (inactive) | 21.9 µM (inactive) | 18.7 µM (inactive) | 16.9 µM (inactive) | 31.5 µM (inactive) | 21.1 µM (inactive) | 30.8 µM (inactive) | 16.4 µM (inactive)
CCCCCC(=O)OC[n+]1ccc(-c2c(COC(=O)NC(C)C)c(COC(=O)NC(C)C)c3n2CCC3)cc1 | > 100 µM (inactive) | > 100 µM (inactive) | > 100 µM (inactive) | > 100 µM (inactive) | > 100 µM (inactive) | > 100 µM (inactive) | > 100 µM (inactive) | > 100 µM (inactive) | 49.5 µM (inactive) | > 100 µM (inactive) | > 100 µM (inactive) | > 100 µM (inactive) | 26.5 µM (inactive) | > 100 µM (inactive) | > 100 µM (inactive) | > 92 µM (inactive) | > 100 µM (inactive) | > 100 µM (inactive) | 72.3 µM (inactive)
CC(=O)O[C@H]1C(=O)[C@@]2(C)[C@H]([C@H](OC(=O)c3ccccc3)[C@]3(O)C[C@H](OC(=O)[C@H](O)[C@@H](NC(=O)CC(C)(C)C)c4ccccc4)C(C)=C1C3(C)C)C1(OC(C)=O)CO[C@@H]1C[C@@H]2O (some centres not stated) | 0.303 µM (active) | 0.00237 µM (active) | < 0.001 µM (active) | 0.00143 µM (active) | – | < 0.001 µM (active) | 0.00287 µM (active) | 0.0194 µM (active) | 0.128 µM (active) | 0.00127 µM (active) | 0.00154 µM (active) | > 10 µM (inactive) | 0.00158 µM (active) | 0.00796 µM (active) | < 0.001 µM (active) | 0.0251 µM (active) | 0.193 µM (active) | < 0.001 µM (active) | 0.00235 µM (active)
C/C(=N\c1cccc(Cl)c1)c1ccncc1 | > 100 µM (inactive) | > 100 µM (inactive) | > 100 µM (inactive) | > 100 µM (inactive) | > 100 µM (inactive) | > 100 µM (inactive) | > 100 µM (inactive) | > 100 µM (inactive) | > 100 µM (inactive) | > 100 µM (inactive) | > 100 µM (inactive) | > 100 µM (inactive) | 28.3 µM (inactive) | > 100 µM (inactive) | > 100 µM (inactive) | > 100 µM (inactive) | > 100 µM (inactive) | > 100 µM (inactive) | > 100 µM (inactive)
COc1ccc(CN(CCc2c[nH]c3ccccc23)Cc2ccc(OC)cc2)cc1 | 4.24 µM (inactive) | 2.31 µM (inactive) | 16.7 µM (inactive) | 2.88 µM (inactive) | 3.04 µM (inactive) | 3.82 µM (inactive) | 0.968 µM (active) | 1.37 µM (inactive) | 3.94 µM (inactive) | 1.56 µM (inactive) | 1.8 µM (inactive) | 8.65 µM (inactive) | 2.14 µM (inactive) | 4.69 µM (inactive) | 1.29 µM (inactive) | 3.08 µM (inactive) | 5.26 µM (inactive) | 3.86 µM (inactive) | 2.15 µM (inactive)
CC(C)(C)[Si](C)(C)OCC1OC(n2cnc3c(=O)[nH]cnc32)CC1O (configuration not stated) | > 100 µM (inactive) | > 100 µM (inactive) | > 100 µM (inactive) | > 100 µM (inactive) | > 100 µM (inactive) | > 100 µM (inactive) | > 100 µM (inactive) | > 100 µM (inactive) | > 100 µM (inactive) | > 100 µM (inactive) | > 100 µM (inactive) | > 100 µM (inactive) | > 100 µM (inactive) | > 100 µM (inactive) | > 100 µM (inactive) | > 100 µM (inactive) | > 100 µM (inactive) | > 100 µM (inactive) | > 100 µM (inactive)
